The results in this text go back to patent publication US11623919B2, “Heterocyclic P2X7 antagonists” (AXXAM S.P.A., priority 2017, dated 2023).

A word on the IC50: it is the point on the concentration scale where inhibition reaches its midpoint.

Molecules are shown by their SMILES.

The target of experiment [1] is T1, P2X7 receptor (Mus musculus, UniProt Q9Z1M0).
T1 construct: mP2X7 (IC50; nM); other: mP2X7; HEK-293 cells stably transfected with P2X7 receptor, Bz-ATP at EC80, Fluo-8 NW; potency
T1 sequence (Q9Z1M0 1-595): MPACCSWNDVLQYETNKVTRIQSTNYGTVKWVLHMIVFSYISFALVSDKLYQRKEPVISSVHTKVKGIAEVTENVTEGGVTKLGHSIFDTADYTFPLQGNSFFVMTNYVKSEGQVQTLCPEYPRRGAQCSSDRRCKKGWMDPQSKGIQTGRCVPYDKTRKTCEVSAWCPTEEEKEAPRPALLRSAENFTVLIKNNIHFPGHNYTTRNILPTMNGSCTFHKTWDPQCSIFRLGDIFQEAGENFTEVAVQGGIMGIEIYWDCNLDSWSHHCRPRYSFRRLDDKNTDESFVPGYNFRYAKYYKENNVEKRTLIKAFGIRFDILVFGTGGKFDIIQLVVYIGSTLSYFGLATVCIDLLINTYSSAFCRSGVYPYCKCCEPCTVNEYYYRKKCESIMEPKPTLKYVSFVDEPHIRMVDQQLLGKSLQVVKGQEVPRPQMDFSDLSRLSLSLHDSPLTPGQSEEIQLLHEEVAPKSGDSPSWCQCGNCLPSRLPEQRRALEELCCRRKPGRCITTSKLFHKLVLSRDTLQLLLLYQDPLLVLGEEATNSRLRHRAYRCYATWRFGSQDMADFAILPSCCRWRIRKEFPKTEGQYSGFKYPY
In words: Screen Quest Fluo-8 No Wash Calcium Assay (Bz-ATP evoked Ca2+ influx, FLIPR). Type of experiment: cell-based. To be noted: mP2X7; HEK-293 cells stably transfected with P2X7 receptor, Bz-ATP at EC80, Fluo-8 NW; potency ranges A-D. Summed up: (§1)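 Compounds were added to Fluo-8-loaded P2X7-transfected HEK-293 cells 5 min before an EC80 Bz-ATP challenge, and Ca2+ influx was then recorded for 3 min. Buffer held 0.3 mM Ca2+ and no Mg2+. Inhibition was normalised to A438079, giving IC50 values.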

The target of experiment [2] is T2, P2X7 receptor (Rattus norvegicus, UniProt Q64663).
T2 construct: rP2X7 (IC50; nM); other: rP2X7; HEK-293 cells stably transfected with P2X7 receptor, Bz-ATP at EC80, Fluo-8 NW; potency
T2 sequence (Q64663 1-595): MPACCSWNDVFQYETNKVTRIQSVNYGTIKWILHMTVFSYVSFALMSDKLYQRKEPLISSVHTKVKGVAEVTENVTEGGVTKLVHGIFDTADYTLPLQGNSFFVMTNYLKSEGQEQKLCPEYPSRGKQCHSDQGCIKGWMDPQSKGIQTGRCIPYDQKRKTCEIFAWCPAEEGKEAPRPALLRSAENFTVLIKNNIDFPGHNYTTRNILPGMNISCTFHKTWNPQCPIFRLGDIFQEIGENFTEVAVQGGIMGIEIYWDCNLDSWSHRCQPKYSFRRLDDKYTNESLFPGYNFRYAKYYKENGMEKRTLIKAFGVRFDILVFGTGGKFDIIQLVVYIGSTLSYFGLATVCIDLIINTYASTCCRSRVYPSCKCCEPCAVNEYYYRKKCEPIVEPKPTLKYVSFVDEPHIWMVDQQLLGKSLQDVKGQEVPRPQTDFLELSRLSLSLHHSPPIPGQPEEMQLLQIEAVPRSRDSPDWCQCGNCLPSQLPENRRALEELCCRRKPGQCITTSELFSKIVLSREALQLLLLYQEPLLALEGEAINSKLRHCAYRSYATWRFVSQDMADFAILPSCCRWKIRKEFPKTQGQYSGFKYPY
Described as above. Type of experiment: cell-based. To be noted: rP2X7; HEK-293 cells stably transfected with P2X7 receptor, Bz-ATP at EC80, Fluo-8 NW; potency ranges A-D. An outline of the steps: as §1

Consider `CC1CCCCC1Cn1c(Cc2c(F)cccc2Cl)noc1=O` (stereo not drawn) [Example 87, 3-[(2-chloro-6-fluorophenyl)methyl]-4-[(2-methylcyclohexyl)methyl]-4,5-dihydro-1,2,4-oxadiazol-5-one], for which the IC50 on P2X7 receptor [1] is 200 to 1000 nM; on P2X7 receptor [2], below 200 nM.

Turning to `O=c1onc(Cc2c(F)cccc2Cl)n1CC1CCC(F)(F)C1` (racemic) [Example 128, 3-[(2-chloro-6-fluorophenyl)methyl]-4-[(3,3-difluorocyclopentyl)methyl]-4,5-dihydro-1,2,4-oxadiazol-5-one], the concentration for half-maximal inhibition (IC50) at P2X7 receptor [1] was 200 to 1000 nM; at P2X7 receptor [2] it was below 200 nM.

Take `O=c1onc(Cc2c(F)cccc2Cl)n1CC1CCC(F)(F)C1` (single isomer, unassigned) [Example 149, 3-(2-chloro-6-fluorobenzyl)-4-[(3,3-difluorocyclopentyl)methyl]-1,2,4-oxadiazol-5(4H)-one]: the IC50 at P2X7 receptor [1] was 200 to 1000 nM; at P2X7 receptor [2], below 200 nM.

With `Cc1cc(F)ccc1Cn1c(Cc2c(F)cccc2Cl)noc1=O` [Example 25, 3-[(2-chloro-6-fluorophenyl)methyl]-4-[(4-fluoro-2-methylphenyl)methyl]-4,5-dihydro-1,2,4-oxadiazol-5-one], the IC50 on P2X7 receptor [1] and on P2X7 receptor [2] was 200 to 1000 nM in each case.

With `O=c1onc(Cc2c(F)cccc2Cl)n1Cc1ccc(Cl)cc1` [Example 65, 3-[(2-chloro-6-fluorophenyl)methyl]-4-[(4-chlorophenyl)methyl]-4,5-dihydro-1,2,4-oxadiazol-5-one], the results for the IC50 on P2X7 receptor [1] and on P2X7 receptor [2] were 1000 to 10000 nM and 200 to 1000 nM, respectively.

In the case of `CC1(C)CCCCC1Cn1c(Cc2c(F)cccc2Cl)noc1=O` (stereo not drawn) [Example 99, 3-[(2-chloro-6-fluorophenyl)methyl]-4-[(2,2-dimethylcyclohexyl)methyl]-4,5-dihydro-1,2,4-oxadiazol-5-one], the IC50 at P2X7 receptor [1] and at P2X7 receptor [2] was 200 to 1000 nM throughout.

For `O=c1onc(Cc2ccc(F)cc2F)n1CC1CCCCC1` [Example 119, 4-(cyclohexylmethyl)-3-[(2,4-difluorophenyl)methyl]-4,5-dihydro-1,2,4-oxadiazol-5-one], the half-maximal inhibitory concentration (IC50) on P2X7 receptor [1] is 200 to 1000 nM; at P2X7 receptor [2], below 200 nM.

As for `O=c1onc(Cc2c(F)cccc2Cl)n1CC12CCC(CC1)C2` [Example 91, 4-{bicyclo [2.2.1]heptan-1-ylmethyl}-3-[(2-chloro-6-fluorophenyl)methyl]-4,5-dihydro-1,2,4-oxadiazol-5-one], the IC50 on P2X7 receptor [1] was 200 to 1000 nM; on P2X7 receptor [2], below 200 nM.

As for `O=c1onc(Cc2ccc(F)cc2Cl)n1CC1CCCCC1` [Example 114, 3-[(2-chloro-4-fluorophenyl)methyl]-4-(cyclohexylmethyl)-4,5-dihydro-1,2,4-oxadiazol-5-one], the IC50 at P2X7 receptor [1] was 200 to 1000 nM; on P2X7 receptor [2], below 200 nM.

With `O=c1onc(Cc2ccccc2F)n1CC1CCCCC1` [Example 120, 4-(cyclohexylmethyl)-3-[(2-fluorophenyl)methyl]-4,5-dihydro-1,2,4-oxadiazol-5-one], the IC50 at P2X7 receptor [1] was 200 to 1000 nM; on P2X7 receptor [2], below 200 nM.

In the case of `O=c1onc(Cc2ccc(F)cc2Cl)n1Cc1ccc(F)cc1` [Example 73, 3-[(2-chloro-4-fluorophenyl)methyl]-4-[(4-fluorophenyl)methyl]-4,5-dihydro-1,2,4-oxadiazol-5-one], the 50% inhibitory concentration (IC50) on P2X7 receptor [1] was in the range of 1000 to 10000 nM; at P2X7 receptor [2] it was 200 to 1000 nM.

With `O=c1onc(Cc2c(F)cccc2Cl)n1CC1CCCC1` [Example 85, 3-[(2-chloro-6-fluorophenyl)methyl]-4-(cyclopentylmethyl)-4,5-dihydro-1,2,4-oxadiazol-5-one], the IC50 at P2X7 receptor [1] is 200 to 1000 nM; at P2X7 receptor [2], below 200 nM.

In the case of `Cc1noc(C)c1Cc1noc(=O)n1CC1CCC(F)(F)CC1` [Example 211, 4-[(4,4-difluorocyclohexyl)methyl]-3-[(dimethyl-1,2-oxazol-4-yl)methyl]-4,5-dihydro-1,2,4-oxadiazol-5-one], the results for the IC50 at P2X7 receptor [1] and on P2X7 receptor [2] were 1000 to 10000 nM and 200 to 1000 nM, respectively.

Regarding `O=c1onc(Cc2c(F)cccc2Cl)n1Cc1ccc(F)cc1Cl` [Example 60, 4-[(2-chloro-4-fluorophenyl)methyl]-3-[(2-chloro-6-fluorophenyl)methyl]-4,5-dihydro-1,2,4-oxadiazol-5-one], the IC50 on P2X7 receptor [1] and on P2X7 receptor [2] was 1000 to 10000 nM each time.

Regarding `O=c1onc(Cc2ccc(Cl)cc2Cl)n1CC1CCCCC1` [Example 118, 4-(cyclohexylmethyl)-3-[(2,4-dichlorophenyl)methyl]-4,5-dihydro-1,2,4-oxadiazol-5-one], the results for the IC50 at P2X7 receptor [1] and at P2X7 receptor [2] were 1000 to 10000 nM and 200 to 1000 nM, respectively.
